# Experimental data from patent publication US9777266B2, “Methods for efficient, expansive, user-defined DNA mutagenesis” (THE JOHNS HOPKINS UNIVERSITY, priority 2012, dated 2017).
# Legend:
# [1] = test system: cells bearing wildtype TEM-1; assay: MIC assay on Mueller Hinton agar, cells bearing TEM-1 without mutation (allele 'none'); assay type: cell-based, E. coli
# Procedure: (§1) Selected single base mutations were re-introduced into TEM-1 by site-directed PFunkel mutagenesis on the 20 μL volume scale. The MIC for ampicillin and piperacillin of the mutants was assessed with and without 6 μg/mL tazobactam by spotting 10^4 CFU on Mueller-Hinton agar plates containing 50 μg/mL Spec, 300 μM IPTG, and √2-fold increments of either ampicillin or piperacillin. Plates were incubated at 37° C. for 12 hrs.
# [2] = test system: cells bearing TEM-1 allele Y105N; assay: MIC assay on Mueller Hinton agar, TEM-1 allele Y105N; assay type: cell-based, E. coli; conditions: replicates 1-3
# Procedure: as §1
# [3] = +tazobactam 6 μg/mL, replicates 1-3
# [4] = −tazobactam, replicates 1-3, 10^4 CFU/spot, 37° C. for 12 hours
Compound,"MIC ampicillin [1, 3] [µg/mL]","MIC ampicillin [1, 4] [µg/mL]",MIC ampicillin ([2]; +tazobactam 6 μg/mL) [µg/mL],MIC ampicillin ([2]; −tazobactam) [µg/mL],"Piperacillin MIC [1, 3] [µg/mL]","Piperacillin MIC [1, 4] [µg/mL]"
"CC1(C)S[C@@H]2[C@H](NC(=O)[C@H](N)c3ccccc3)C(=O)N2[C@H]1C(=O)O [Ampicillin, ampicillin]",22.6,8192,1448,5792,,
"CCN1CCN(C(=O)N[C@@H](C(=O)N[C@@H]2C(=O)N3[C@@H]2SC(C)(C)[C@@H]3C(=O)O)c2ccccc2)C(=O)C1=O [Piperacillin, piperacillin]",,,,,1.4,2896
